According to patent publication US10351546B2, “Pyridin-3-yl acetic acid derivatives as inhibitors of human immunodeficiency virus replication” (priority 2015, dated 2019):

test system: NL-RLuc virus; assay: Inhibition of HIV replication (NL-RLuc luciferase reporter virus in MT-2 cells); assay type: cell-based; settings: Human immunodeficiency virus 1, MT2, 120 h, read-out: Activity
Text: Inhibition of HIV replication: A recombinant NL-RLuc proviral clone was constructed in which a section of the nef gene form NL4-3 was replaced with the Renilla Luciferase gene. This virus is fully infectious and can undergo multiple cycles of replication in cell culture. In addition, the luciferous reporter provides a simple and easy method for quantitating the extent of virus growth and consequently, the antiviral activity of test compounds. The plasmid pNLRLuc contains the proviral NL-Rluc DNA cloned into pUC18 at the PvuII site. The NL-RLuc virus was prepared by transfection of 293T cells with the plasmid pNLRLuc. Transfections were performed using the LipofectAMINE PLUS kit form Invitrogen (Carlsbad, Calif.) according to the manufacturer and the virus generated was titered in MT-2 cells. For susceptibility analyses, the titrated virus was used to infect MT-2 cells in the presence of compound, and after 5 days of incubation, cells were processed and quantitated for virus growth by the amount of expressed luciferase. Assay media was RPMI 1640 supplemented with 10% heat inactivated fetal bovine serum (FBS), 100 units/ml penicillin G/100 units/ml streptomycin, 10 mM HEPES buffer pH 7.55 and 2 mM L-glutamine. The results form at least 2 experiments were used to calculate the EC50 values. Luciferase was quantitated using the Dual Luciferase kit form Promega (Madison, Wis.). Susceptibility of viruses to compounds was determined by incubation in the presence of serial dilutions of the compound. The 50% effective concentration (EC50) was calculated by using the exponential form of the median effect equation where (Fa)=1/[1+(ED50/drug conc.)^m](Johnson V A, Byington R T. Infectivity Assay. In Techniques in HIV Research. ed. Aldovini A, Walker B D. 71-76. New York: Stockton Press. 1990). Activity equal to A refers to a compound having an EC50≤100 nM, while B and C denote compounds having an EC50 between 100 nM and 1 uM (B) or >1 uM (C).

SMILES | EC50 [µM]
Cc1nc(C(=O)O)c(-c2ccc(OCCc3ccc(F)cc3)cc2)c(N2CCC(C)(C)CC2)c1[C@H](OC(C)(C)C)C(=O)O [Example 38, (S)-5-(tert-Butoxy(carboxy)methyl)-4-(4,4-dimethylpiperidin-1-yl)-3-(4-(4-fluorophenethoxy)phenyl)-6-methylpicolinic acid] | 0.1 to 1
COCCNC(=O)c1nc(C)c([C@H](OC(C)(C)C)C(=O)O)c(N2CCC(C)(C)CC2)c1-c1ccc(OCCc2ccc(F)cc2)cc1 [Example 39, (S)-2-(tert-Butoxy)-2-(4-(4,4-dimethylpiperidin-1-yl)-5-(4-(4-fluorophenethoxy)phenyl)-6-((2-methoxyethyl)carbamoyl)-2-methylpyridin-3-yl)acetic acid] | < 0.1
CNC(=O)c1nc(C)c([C@H](OC(C)(C)C)C(=O)O)c(N2CCC(C)(C)CC2)c1-c1ccc(OCCc2ccc(F)cc2)cc1 [Example 40, (S)-2-(tert-Butoxy)-2-(4-(4,4-dimethylpiperidin-1-yl)-5-(4-(4-fluorophenethoxy)phenyl)-2-methyl-6-(methylcarbamoyl)pyridin-3-yl)acetic acid] | < 0.1
Cc1nc(C(=O)N(C)CC2CCOCC2)c(-c2ccc(OCCc3ccc(F)cc3)cc2)c(N2CCC(C)(C)CC2)c1[C@H](OC(C)(C)C)C(=O)O [Example 41, (S)-2-(tert-Butoxy)-2-(4-(4,4-dimethylpiperidin-1-yl)-5-(4-(4-fluorophenethoxy)phenyl)-2-methyl-6-(methyl((tetrahydro-2H-pyran-4-yl)methyl)carbamoyl)pyridin-3-yl)acetic acid] | < 0.1
Cc1nc(C(=O)N(C)CC2CCCCC2)c(-c2ccc(OCCc3ccc(F)cc3)cc2)c(N2CCC(C)(C)CC2)c1[C@H](OC(C)(C)C)C(=O)O [Example 42, (S)-2-(tert-Butoxy)-2-(6-((cyclohexylmethyl)(methyl)carbamoyl)-4-(4,4-dimethylpiperidin-1-yl)-5-(4-(4-fluorophenethoxy)phenyl)-2-methylpyridin-3-yl)acetic acid] | < 0.1
CCCCN(C)C(=O)c1nc(C)c([C@H](OC(C)(C)C)C(=O)O)c(N2CCC(C)(C)CC2)c1-c1ccc(OCCc2ccc(F)cc2)cc1 [Example 43, (S)-2-(tert-Butoxy)-2-(6-(butyl(methyl)carbamoyl)-4-(4,4-dimethylpiperidin-1-yl)-5-(4-(4-fluorophenethoxy)phenyl)-2-methylpyridin-3-yl)acetic acid] | < 0.1
Cc1nc(-c2nc3ccc(Cl)cc3[nH]2)c(-c2ccc(OCCc3ccc(F)cc3)cc2)c(N2CCC(C)(C)CC2)c1[C@H](OC(C)(C)C)C(=O)O [Example 44, (S)-2-(tert-Butoxy)-2-(6-(6-chloro-1H-benzo[d]imidazol-2-yl)-4-(4,4-dimethylpiperidin-1-yl)-5-(4-(4-fluorophenethoxy)phenyl)-2-methylpyridin-3-yl)acetic acid] | < 0.1
Cc1nc(-c2ncc(Cc3ccc(F)cc3)o2)c(-c2ccc(OCCc3ccc(F)cc3)cc2)c(N2CCC(C)(C)CC2)c1[C@H](OC(C)(C)C)C(=O)O [Example 45, (S)-2-(tert-Butoxy)-2-(4-(4,4-dimethylpiperidin-1-yl)-6-(5-(4-fluorobenzyl)oxazol-2-yl)-5-(4-(4-fluorophenethoxy)phenyl)-2-methylpyridin-3-yl)acetic acid] | < 0.1
Cc1nc(N)c(-c2ccc(OCCc3ccc(F)cc3)cc2)c(N2CCC(C)(C)CC2)c1[C@H](OC(C)(C)C)C(=O)O [Example 46, (S)-2-(6-Amino-4-(4,4-dimethylpiperidin-1-yl)-5-(4-(4-fluorophenethoxy)phenyl)-2-methylpyridin-3-yl)-2-(tert-butoxy)acetic acid] | < 0.1
CC(=O)Nc1nc(C)c([C@H](OC(C)(C)C)C(=O)O)c(N2CCC(C)(C)CC2)c1-c1ccc(OCCc2ccc(F)cc2)cc1 [Example 47, (S)-2-(6-Acetamido-4-(4,4-dimethylpiperidin-1-yl)-5-(4-(4-fluorophenethoxy)phenyl)-2-methylpyridin-3-yl)-2-(tert-butoxy)acetic acid] | < 0.1

same assay, conditions: Human immunodeficiency virus 1, MT2, 120 h, read-out: EC50 μM

SMILES | EC50 [µM]
Cc1nc(C(=O)N(C)CC2CCCCC2)c(-c2ccc(OCCc3ccc(F)cc3)cc2)c(N2CCC(C)(C)CC2)c1[C@H](OC(C)(C)C)C(=O)O [Example 42, (S)-2-(tert-Butoxy)-2-(6-((cyclohexylmethyl)(methyl)carbamoyl)-4-(4,4-dimethylpiperidin-1-yl)-5-(4-(4-fluorophenethoxy)phenyl)-2-methylpyridin-3-yl)acetic acid] | 0.004
